Substitutions are numbered along the chain they refer to. Where two headings read alike, the source gives them in different places. Oligonucleotides are written 5' to 3', each unit as a sugar letter and its base; * is a phosphorothioate linkage, no mark a phosphodiester; rarer units and linkages stand in square brackets, end groups in braces. Plain capitals give the bases only. [invdT] = inverted (3'-3') thymidine; d = 2'-deoxy (DNA); m = 2'-O-methyl
What was measured:
[1] = target: vWF (Homo sapiens, UniProt P04275, D1472H/Q852R/T1381A); test: cellular / biological vWF dependent assays of Example 3, not specified further; type: cell-based; settings: in words; FACS, BIPA (and PFA-100) assays of Example 3
Chain of vWF (P04275 764-2813 Q852R/T1381A/D1472H): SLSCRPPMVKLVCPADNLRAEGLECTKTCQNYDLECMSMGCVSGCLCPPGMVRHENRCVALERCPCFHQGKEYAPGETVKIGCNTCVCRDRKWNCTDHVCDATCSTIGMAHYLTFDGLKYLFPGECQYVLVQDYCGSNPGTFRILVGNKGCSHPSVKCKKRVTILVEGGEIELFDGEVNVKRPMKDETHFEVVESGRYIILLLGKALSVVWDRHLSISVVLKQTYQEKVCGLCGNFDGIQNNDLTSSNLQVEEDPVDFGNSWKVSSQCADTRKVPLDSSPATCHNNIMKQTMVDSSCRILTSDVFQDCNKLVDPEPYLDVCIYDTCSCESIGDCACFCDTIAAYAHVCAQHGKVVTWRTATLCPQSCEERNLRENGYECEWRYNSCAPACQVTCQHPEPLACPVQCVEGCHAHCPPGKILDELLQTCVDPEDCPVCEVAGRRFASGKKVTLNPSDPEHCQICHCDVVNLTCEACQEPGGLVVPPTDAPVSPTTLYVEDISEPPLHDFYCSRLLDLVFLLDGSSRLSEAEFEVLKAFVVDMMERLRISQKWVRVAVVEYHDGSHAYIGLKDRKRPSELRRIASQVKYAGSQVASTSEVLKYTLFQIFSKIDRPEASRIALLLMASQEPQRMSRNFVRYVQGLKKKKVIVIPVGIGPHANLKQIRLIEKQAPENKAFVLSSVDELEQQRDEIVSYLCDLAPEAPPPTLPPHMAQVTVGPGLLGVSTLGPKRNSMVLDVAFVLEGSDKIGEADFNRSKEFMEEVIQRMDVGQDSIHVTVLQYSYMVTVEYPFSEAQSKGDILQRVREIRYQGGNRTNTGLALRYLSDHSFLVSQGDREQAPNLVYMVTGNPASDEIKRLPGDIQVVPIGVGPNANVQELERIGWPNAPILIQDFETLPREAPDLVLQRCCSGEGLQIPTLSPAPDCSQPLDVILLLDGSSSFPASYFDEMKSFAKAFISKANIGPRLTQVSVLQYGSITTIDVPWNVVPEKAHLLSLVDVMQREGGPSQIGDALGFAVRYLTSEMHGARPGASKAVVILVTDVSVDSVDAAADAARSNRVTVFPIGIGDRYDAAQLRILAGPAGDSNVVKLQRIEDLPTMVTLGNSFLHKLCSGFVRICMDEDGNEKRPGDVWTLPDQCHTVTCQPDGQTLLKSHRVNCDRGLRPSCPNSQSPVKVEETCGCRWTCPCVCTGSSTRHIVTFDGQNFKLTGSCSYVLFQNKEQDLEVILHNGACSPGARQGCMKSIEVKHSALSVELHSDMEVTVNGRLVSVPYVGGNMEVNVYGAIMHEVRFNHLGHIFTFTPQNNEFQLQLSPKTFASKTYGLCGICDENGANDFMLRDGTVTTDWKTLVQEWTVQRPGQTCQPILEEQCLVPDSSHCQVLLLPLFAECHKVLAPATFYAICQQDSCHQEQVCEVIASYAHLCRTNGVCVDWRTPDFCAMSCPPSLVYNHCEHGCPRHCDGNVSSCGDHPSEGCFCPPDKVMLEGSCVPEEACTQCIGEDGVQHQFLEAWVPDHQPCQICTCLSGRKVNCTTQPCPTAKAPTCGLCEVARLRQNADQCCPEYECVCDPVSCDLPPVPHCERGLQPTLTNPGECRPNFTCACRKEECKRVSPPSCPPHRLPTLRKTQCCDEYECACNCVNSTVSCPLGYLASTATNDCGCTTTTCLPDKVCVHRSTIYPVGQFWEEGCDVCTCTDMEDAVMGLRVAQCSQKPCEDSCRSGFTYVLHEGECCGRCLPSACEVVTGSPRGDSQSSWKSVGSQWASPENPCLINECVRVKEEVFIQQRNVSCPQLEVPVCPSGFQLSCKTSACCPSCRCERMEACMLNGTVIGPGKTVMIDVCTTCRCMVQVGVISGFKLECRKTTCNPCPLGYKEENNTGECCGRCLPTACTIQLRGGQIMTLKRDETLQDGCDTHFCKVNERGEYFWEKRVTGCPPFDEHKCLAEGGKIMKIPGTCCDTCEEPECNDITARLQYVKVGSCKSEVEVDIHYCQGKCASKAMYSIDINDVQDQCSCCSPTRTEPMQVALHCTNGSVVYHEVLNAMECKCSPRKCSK
Description: The effectiveness of various aptamers in blocking vWF function in several biological assays is described in this Example.
In one assay botrocetin is used. Botrocetin, a protein isolated from snake venom, is known to induce von Willebrand Factor binding to the gpib receptor on live and fixed platelets. This reaction causes agglutination of suspensions of fixed platelets via vWF multimerization. In preparations of platelet rich plasma (hereinafter “PRP”), vWF/botrocetin induction of agglutination is followed by a second phase of platelet aggregation caused by metabolic activation of the platelets. These two reactions: vWF binding to fixed platelets and vWF mediated platelet aggregation, can be used to measure the activity of aptamers of the invention.

[2] = system: full length human vWF binding to lyophilized platelets; test: Full length human von Willebrand Factor platelet binding assay (FACS); type: cell-based
Procedure, shortened: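 Aptamer titrations (0.1–1000 nM) pre-incubated with 5 nM full-length human vWF, then added to lyophilized platelets plus botrocetin for 15 min at 37 °C in PBS/0.5% BSA. Bound vWF detected by anti-vWF then FITC secondary antibody via flow cytometry MFI; % inhibition versus no-aptamer binding fitted for IC50.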

[3] = system: full length human vWF (SEQ ID NO 7); test: dot blot KD determination and extent of binding, full length human vWF; settings: for % binding @ 100 nM vWF: extent of aptamer binding at 100 nM full length human vWF; for binding to human vWF: in words;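 on all read-outs here: dot blot binding of aptamers to full length human vWF across a protein titration, incubated 30 minutes at room temperature in 1x DPBS with BSA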
[4] = system: rabbit vWF domain A1 binding to lyophilized platelets; test: Rabbit von Willebrand Factor domain A1 platelet binding assay (FACS); type: cell-based; settings: read-out: FACS IC50 vs rabbit A1 domain
Chain of rabbit vWF domain A1 binding to lyophilized platelets (as listed by the source): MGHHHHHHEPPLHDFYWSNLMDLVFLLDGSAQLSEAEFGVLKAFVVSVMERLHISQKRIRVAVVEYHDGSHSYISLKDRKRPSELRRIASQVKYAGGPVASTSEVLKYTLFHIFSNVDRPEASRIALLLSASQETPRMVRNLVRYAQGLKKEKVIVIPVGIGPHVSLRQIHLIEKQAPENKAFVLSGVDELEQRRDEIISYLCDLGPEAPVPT
Protocol: Botrocetin induces the binding of the A1 domain of vWF to platelets, as well as the full length protein. It was determined by the inventors that 6-Histidine-tagged rabbit A1 domain vWF purified protein could be induced to bind to human lyophilized platelets with botrocetin. Rabbit A1 binding to platelets is measured with an anti-poly-His antibody followed by incubation with a phycoerythrin conjugated secondary antibody. The degree of binding can be quantified by flow cytometric analysis. The ability of aptamers to block the binding of rabbit A1 to human fixed platelets was correlated with decreased fluorescence signal.
The ability of aptamers of the invention to block rabbit vWF domain A1 binding to lyophilized platelets was also assessed by flow cytometric analysis. Titrations of aptamers (zero, 0.1 nM to 1000 nM) were preincubated briefly with 4 nM of rabbit A1 vWF in FACS buffer (PBS plus 0.5% bovine serum albumin) at room temperature in a volume of 50 uL. Another 50 uL containing 5 uL of lyophilized platelets plus 1 uL of 0.1 U/uL of botrocetin in FACS buffer was added to aptamer/vWF. This reaction was allowed to proceed for 15 minutes at 37 degrees C. after which 200 uL of FACS buffer was added. Platelets were collected by a 6 minute spin at 1470 RCF and the supernatant was discarded. The pellets were resuspended in 100 uL of FACS buffer containing a 1:200 dilution of anti-Penta-HIS-biotin conjugate antibody and were incubated at room temperature for 30 minutes. After the dilution with 200 uL of FACS buffer, the platelets were spun at 1470 RCF for 6 minutes, and the supernatant was discarded. The pellets were resuspended in a 1:100 solution of anti-IgG-PE antibody and were incubated in the dark for 30 minutes at room temperature. The entire 100 uL was diluted into 200 uL of FACS buffer and analyzed immediately by flow cytometric analysis in the FACSCAN. Contaminating debris was eliminated from the analysis by drawing a gate around the population of single and aggregated platelets and collecting data from 10000 events. Median fluorescent intensity (“MedFI”) readings (which are generally equivalent to the MFI readings, described in Example 3a above, for comparative purposes) were quantified for each sample analyzed by flow cytometry. Background MedFI was subtracted from all data points. Percent inhibition was reported by calculating the percent value of binding of […] to platelets in the presence of aptamer at a given concentration relative to binding in the absence of any aptamer (see FIG. 7). IC50 values were determined by fitting the percent inhibition of vWF binding to platelets as a function of aptamer concentration to the equation: % inhibition=% inhibitionmax/(1+IC50/aptamer conc.)

[5] = not given; remark: listed apart in the source
[6] = system: botrocetin induced platelet aggregation; test: Inhibition of botrocetin induced platelet aggregation (BIPA) in human PRP; type: cell-based; settings: human platelet rich plasma
Protocol: In platelet rich plasma isolated from fresh human blood, botrocetin induces platelet aggregation via vWF. Platelet aggregate formation can be measured optically as an increase in % light transmittance on a Chronolog Model 490-4D Aggregometer because aggregation of platelets clarifies the plasma. Aptamers of the invention were analyzed for their ability to inhibit botrocetin induced platelet aggregation (“BIPA”) in human blood. An aptamer of the invention was considered to be active if it could prevent aggregate formation for six minutes post botrocetin addition.
In order to determine the activity of aptamers on live human platelets, BIPA assays were done using freshly prepared platelet rich plasma. Blood was obtained from healthy human donors who had not taken NSAIDS for at least five days. […] Collected blood was pooled into 15 mL conical tubes and was spun at 200 g for 20 minutes. The turbid, yellow layer of platelet rich plasma (“PRP”) was withdrawn from the tubes, pooled, and set aside at room temperature. The remaining blood was spun at 2500 g for ten minutes. The clarified layer of plasma, known as platelet poor plasma (“PPP”), was withdrawn and set aside at room temperature. PRP was aliquoted into cuvettes containing stir bars at a volume of 470 uL. A sample of 500 uL of PPP was aliquoted into a cuvette and placed in the PPP reference cell of the platelet aggregometer. Samples of PRP were prewarmed at 37 degrees C. in the platelet aggregometer for 3-5 minutes before being used in BIPA assays. First, the concentration of botrocetin needed to induce platelet aggregation for each individual donor was determined by titration. This concentration of botrocetin was used for the remainder of the experiment. Next, aptamer was assayed by adding titrations of aptamer (zero, 1 nM to 1000 nM) to prewarmed PRP for one minute, followed by addition of botrocetin. With platelet aggregation, an increase in amplitude of light transmission is seen (FIG. 8). The concentration at which platelet aggregation is blocked at 90% or greater after 6 minutes is reported in the final column of Table 26.

[7] = system: rabbit vWF A1 domain (SEQ ID NO 6); test: 3-point dot blot screen, rabbit vWF A1 domain; type: binding; settings: 3-point dot blot screen, 20 nM rabbit vWF A1 domain; ratio of fraction of aptamer bound with target protein to fraction bound without protein
Chain of rabbit vWF A1 domain (SEQ ID NO 6) (as listed by the source): as above
Procedure, shortened: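 Rabbit vWF A1 domain binding was screened by dot blot using three conditions: no target protein, human vWF, and rabbit vWF A1 domain at 100 nM (20 nM in the screen run twice). Radiolabeled aptamer bound to nitrocellulose was quantified, and results are expressed as the ratio of bound fraction with protein to bound fraction without protein.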

[8] = system: full length human vWF; test: 3-point dot blot screen, full length human vWF; type: binding; settings: 20 nM full length human vWF, ratio of fraction of aptamer bound with target protein to fraction bound without protein
Procedure, shortened: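 Unique aptamer clones tested twice by nitrocellulose dot blot with no protein, 20 nM full-length human vWF or 20 nM rabbit vWF A1 domain. Value is fraction of aptamer bound with target divided by fraction bound without protein.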

[9] = system: rabbit vWF A1 domain (SEQ ID NO 6); test: dot blot KD determination, rabbit vWF A1 domain; type: binding; settings: dot blot, 12 point protein titration, 1xDPBS plus 0.1 mg/mL BSA, room temperature, 30 minutes
Protocol: A 12 point protein titration was used in the dot blot assay (300 nM, 100 nM, 30 nM, 10 nM, 3 nM, 1 nM, 300 pM, 100 pM, 30 pM, 10 pM, 3 pM, 0 pM) in 1×DPBS plus 0.1 mg/mL BSA at room temperature for 30 minutes.

[10] = system: intra-arterial thrombosis of carotid arteries; test: cynomolgus macaque electrolytic thrombosis model; type: in vivo, cynomolgus monkeys; settings: animals treated with Reopro
Protocol: A study was performed to test the efficacy of ARC1779 (SEQ ID NO 320) in inhibiting intra-arterial thrombosis in a well documented non-human primate electrolytic thrombosis model. See, e.g., Rote et al., Stroke, 1994: 25, 1223-1233.
Each animal was anesthetized prior to surgical preparation, intubated and maintained in anesthesia with isoflurane inhalant anesthetic to effect delivered through a volume-regulated respirator. An intravenous catheter was also placed in a peripheral vein for administration of lactated Ringer's solution during the procedure.
A catheter was placed in the femoral artery of each animal for continuous monitoring of arterial blood pressure. Similarly a catheter was placed in the femoral vein for blood sample collection. Each carotid artery was instrumented with a Doppler flow probe connected to a flow meter. The flow probes were placed around the artery at a point proximal to the insertion of the intra-arterial electrode and stenosis. The stenosis was placed around each carotid artery so that the […] was reduced by approximately 50% to 60% without altering the mean […]. Blood flow in the carotid arteries was monitored and recorded continuously throughout the observation periods.
Electrolytic injury to the intimal surface of each carotid artery was accomplished via placement of an intravascular electrode. Each electrode was connected to the positive pole of a constant current device and cathode connected to a distant subcutaneous site. Continuous current was delivered to each vessel for a period of 3 hours or for 30 minutes after complete occlusion, whichever was shorter.
Once the electrodes were placed on the right carotid artery (“RCA”) the animal was administered the test article as indicated in Table 32 above. Approximately 15 minutes after test article administration, the electrical current was applied at 100 μA. Blood samples and CBT measurements were collected at the time points specified in Blood Sample Collection Schedule as indicated in FIG. 31. The current was terminated ˜30 minutes after the blood flow signal remained stable at zero flow (which indicates an occlusive thrombus had been formed at the site) or after 180 minutes of electrical stimulation. Approximately 195 minutes after the test article was administered, the left carotid artery (“LCA”) had electrical current administered in a similar fashion as previously described for the RCA. After termination of all surgical procedures and sample collection each animal was euthanized.
An additional 10 cynomolgus monkeys (2.5 to 3.5 kg) were divided into treatment groups 5 to 7 and were treated according the regimen indicated in Table 33 below.
The animal procedure for each treatment group in Table 33 was conducted as reported for the animals in Example 5B.

[11] = 5 nM full length human vWF, lyophilized platelets, botrocetin, read-out: Inhibition of full length hVWF binding in FACS assay, Average IC50
[12] = dot blot, 12 point protein titration, 1xDPBS plus 0.1 mg/mL BSA, room temperature, 30 minutes, read-out: full length human vWF KD

Molecule: GGACGATCTGACTAGCTCCAGTGTTTTATCTAATAACCGTCC (DNA, backbone not given here) [SEQ ID NO 208, minimized DNA aptamer]
- activity in the cellular / biological assays [1]: demonstrated activity
- IC50 [2, 11]: 4300 pM

Molecule: mCmGmGmCdCmG-s-TmGdCdGdGTmGmCdCmUdCdCmGmUmCmAmCPEGmGmUdGdCdAmGmUmGmCmCmG-3T (CGGCCGTGCGGTGCCUCCGUCACGUGCAGUGCCGT; chemistry not fully specified) [ARC1533]
- % binding @ 100 nM vWF ([3]; Phase 4 and 5 modification): 31.7%
- Kd ([3]; Phase 4 and 5 modification, full length human vWF, read-out: KD): 4 nM
- T½ Human plasma: 93 h

Molecule: mGmCmGmUdGdCdAmGmUmGmCmCmUmUmCmGmGmCdCmGTmGdCdGdGTmGmCdCmUdCdCmGmUmCmAmCmGmC-3T (GCGUGCAGUGCCUUCGGCCGTGCGGTGCCUCCGUCACGC; sugars from the 5' end mmmmdddmmmmmmmmmmmdmdmddddmmdmddmmmmmmm, [invdT] at 3' end, backbone and methylation of C not given here) [ARC1346]
- IC50 [4]: 180 nM
- IC50 ([2]; read-out: FACS IC50 vs human full length vWF): 50000 pM
- T½ Rat plasma [5]: 19 h
- IC90 [6]: > 1000 nM
- % binding @ 100 nM vWF ([3]; Phase 2 modification): 51%
- Kd ([3]; Phase 2 modification, full length human vWF, read-out: KD): 11 nM
- binding to human vWF ([3]; dot blot): the most potent

Molecule: mGmCmGmUdGdCdAmGmUmGmCmCmUmUmCmGmGmCdCmGmTmGdCdGdGTmGmCdCmUdCdCmGmUmCmAmCmGmC-3T (mGmCmGmUdGdCdAmGmUmGmCmCmUmUmCmGmGmCdCmGmTmGdCdGdGdTmGmCdCmUdCdCmGmUmCmAmCmGmC[invdT]) [ARC1525]
- activity in the cellular / biological assays [1]: did not display activity
- binding to human vWF ([3]; dot blot): no binding at all

B1: AMX238.E9: DNA SELEX 2 aptamer clone (nucleic acid)
DNA: CTACCTACGATCTGACTAGCGTGCAGTGCCCATCTTAGGCCGTGCGGTGCCTCCGTCACGCTTACTCTCATGTAGTTCC
modifications: DNA, backbone not given here
notes: DNA SELEX 2 aptamer clone
- activity in the cellular / biological assays [1]: slightly more potent
- IC50 [2, 11]: 3400 pM
- IC50 ([2]; 5 nM full length human vWF, lyophilized platelets, botrocetin, units in the cell: lower bound pM, upper bound nM, read-out: Inhibition of full length hVWF binding in FACS assay, IC50 range): 772 to 6500 pM
- Screen Rabbit/No Protein [7]: 3.36
- Screen- Human/No Protein [8]: 3.44
- Kd [3, 12]: 0.39 nM
- Kd [9]: 5.3 nM

B2: AMX238.H5: DNA SELEX 2 aptamer clone (nucleic acid)
DNA: B1 DNA with C31T, C34T, T35C
modifications: DNA, backbone not given here
notes: DNA SELEX 2 aptamer clone
- activity in the cellular / biological assays [1]: slightly more potent
- IC50 [2, 11]: 658 pM
- Screen Rabbit/No Protein [7]: 3.46
- Screen- Human/No Protein [8]: 3.75
- Kd [3, 12]: 0.33 nM
- Kd [9]: 6 nM

B3: Reopro: IIbIIIa antagonist (antibody, chains of the INN, looked up, V domains shown)
VH: EVQLQQSGTVLARPGASVKMSCEASGYTFTNYWMHWVKQRPGQGLEWIGAIYPGNSDTSYIQKFKGKAKLTAVTSTTSVYMELSSLTNEDSAVYYCTLYDGYYVFAYWGQGTLVTVSA
VL: EIVLTQSPVTLSVTPGDSVSLSCRASRDISNNLHWFQQTSHESPRLLIKYASQSMSGIPSRFSGSGSGTDFTLSINSVETEDFGMYFCQQTNSWPYTFGGGTKLEIK
modifications: Fab
notes: IIbIIIa antagonist
- arteries that developed occlusive thrombi [10]: 20%

— US7998940B2, “Aptamers to von Willebrand factor and their use as thrombotic disease therapeutics” (Archemix Corp., priority 2004, dated 2011)
